# According to publication PMC11952222, “Development and comparison of single FLT3-inhibitors to dual FLT3/TAF1-inhibitors as an anti-leukemic approach” (PLOS One, 2025):
# Where “and” joins values, the source holds several entries; their conditions need not be identical. Equal values may be shown once. Read-outs that look alike come from different tables or passages of the source.
# Key:
# PDGFRB [1] = target: T1, PDGFRB (Homo sapiens, UniProt P09619); experiment: Eurofins/DiscoverX cell free kinase assay, percent control; type: binding; conditions: for per_control_1000nM PDGFRB: 1000 nM compound; for per_control_10000nM PDGFRB: 10000 nM compound
# T1 construct: purchased Eurofins/DiscoverX
# Protocol: (§1) The 3i-compounds underwent activity testing against a panel of 32 bromodomains using the Eurofins/DiscoverX bromoMAX assay, with specific focus on TAF1(2) bromodomain assessed by the KdELECT assay. In a similar manner, kinase activity was evaluated using a panel of 97 kinase proteins using the Eurofins/DiscoverX scanELECT and KdELECT assays, with specific focus on FLT3 protein. An 11-point 3-fold serial dilution of each test compound was prepared in 100% DMSO at 100x final test concentration and subsequently diluted to final concentration (DMSO 1%). […] Percent control was calculated using the following formula: ((test compound signal – positive control signal)/ (negative control signal – positive control signal)) × 100.
# (§2) Fig 2 Results of 3i-compound series at concentrations of 1 µM and 10 µM in a cell free Eurofins/DiscoverX assay for kinase and bromodomain proteins. (A) Single-targeted compounds with tyrosine kinase activity but without bromodomain activity. (B) Dual-targeted compounds with both tyrosine kinase and bromodomain activity.
# FLT3 = target: T2, FLT3 (Homo sapiens, UniProt P36888); experiment: as above; type: binding; conditions: for per_control_1000nM FLT3: 1000 nM compound; for per_control_10000nM FLT3: 10000 nM compound
# T2 construct: purchased Eurofins/DiscoverX
# T2 sequence (P36888 27-993): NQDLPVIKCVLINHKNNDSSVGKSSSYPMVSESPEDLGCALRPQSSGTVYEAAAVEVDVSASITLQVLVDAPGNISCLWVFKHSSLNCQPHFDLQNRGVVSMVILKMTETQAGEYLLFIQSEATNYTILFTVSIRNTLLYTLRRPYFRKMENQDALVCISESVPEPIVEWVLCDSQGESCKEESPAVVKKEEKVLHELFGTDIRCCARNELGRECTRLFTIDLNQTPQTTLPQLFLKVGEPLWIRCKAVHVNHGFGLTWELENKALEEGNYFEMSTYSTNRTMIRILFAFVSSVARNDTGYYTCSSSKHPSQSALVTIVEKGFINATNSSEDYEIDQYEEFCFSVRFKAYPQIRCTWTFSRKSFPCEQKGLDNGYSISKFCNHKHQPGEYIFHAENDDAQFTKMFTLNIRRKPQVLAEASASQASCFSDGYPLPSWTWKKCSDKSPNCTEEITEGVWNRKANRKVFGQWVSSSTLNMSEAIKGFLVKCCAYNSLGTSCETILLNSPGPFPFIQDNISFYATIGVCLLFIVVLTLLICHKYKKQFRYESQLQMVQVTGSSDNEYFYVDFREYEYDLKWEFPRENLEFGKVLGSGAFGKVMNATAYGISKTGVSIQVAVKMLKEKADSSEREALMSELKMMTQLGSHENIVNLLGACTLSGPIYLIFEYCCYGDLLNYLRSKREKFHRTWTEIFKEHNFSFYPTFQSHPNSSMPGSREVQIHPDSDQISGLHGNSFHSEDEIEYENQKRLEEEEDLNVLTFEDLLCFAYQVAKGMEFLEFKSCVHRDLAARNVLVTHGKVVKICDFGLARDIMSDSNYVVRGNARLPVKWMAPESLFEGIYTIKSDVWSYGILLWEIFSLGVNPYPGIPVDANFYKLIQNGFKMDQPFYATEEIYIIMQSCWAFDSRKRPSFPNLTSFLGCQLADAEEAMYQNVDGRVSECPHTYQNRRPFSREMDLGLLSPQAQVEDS
# Protocol: as §1, §2
# DU4475 cells = experiment: Cell toxicity, CellTox Green, DU4475; type: cell-based; conditions: CellTox Green relative to DMSO
# Protocol: (§3) Drug sensitivity and resistance testing in MOLM13, DU4475, HDQP1, and IGROV1 cells was conducted at the Finnish Institute for Molecular Medicine (FIMM), University of Helsinki. In brief, the effects of compounds on cell viability and cell death were quantified with Cell-Titer Glo (Promega) and CellTox Green (Promega), respectively. Compounds or vehicle control were included in cell culture medium at described concentrations for 72h using an automated liquid dispenser in 384-well format. For KASUMI-1 experiments, cells were grown in 96-well plates and similarly incubated with compounds at indicated concentrations for 72h in RPMI + 10% FCS + Gentamicin, followed by lysis and quantification of cell viability with Cell-Titer Glo (Promega).
# (§4) Raw values from viability and toxicity assays were normalized to DMSO and plotted to heat maps in R using pheatmap (RRID:SCR_016418). Dose-response curves were generated using the drc package in R [40]. In brief, nonlinear modelling was performed to calculate IC50 values for each compound where possible and resulting curves from drc and experimental values were plotted using ggplot2 (RRID:SCR_014601).
# TAF1(2) = target: T3, TAF1(2) (Homo sapiens, UniProt P21675); experiment: Eurofins/DiscoverX cell free bromodomain assay, percent control; type: binding; conditions: for per_control_1000nM TAF1(2): 1000 nM compound; for per_control_10000nM TAF1(2): 10000 nM compound
# T3 construct: with specific focus on TAF1(2) bromodomain assessed by the KdELECT assay; purchased Eurofins/DiscoverX
# T3 sequence (P21675 1519-1628 limits assumed): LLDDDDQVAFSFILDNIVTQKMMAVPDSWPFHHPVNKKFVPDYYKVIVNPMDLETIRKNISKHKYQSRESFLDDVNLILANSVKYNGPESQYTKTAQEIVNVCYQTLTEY
# Protocol: as §1
# HDQP1 cells = experiment: Cell viability, CellTiter Glo, HDQP1; type: cell-based
# Protocol: as §3, §4
# PDGFRB [2] = target: T1, PDGFRB; experiment: Eurofins/DiscoverX kinase assay, PDGFRB IC50; type: binding
# Protocol: as §1
# KASUMI-1 cells = experiment: Cell viability, CellTiter Glo, KASUMI-1; type: cell-based; conditions: compared to dual FLT3/TAF1(2) compounds 3i-1103, 3i-1246, 3i-1248
# Protocol: as §3, §4
# c-KIT = target: T4, c-KIT (Homo sapiens, UniProt P10721); experiment: Eurofins/DiscoverX kinase assay, c-KIT IC50; type: binding
# T4 construct: purchased Eurofins/DiscoverX
# Protocol: as §1
# [3] = 72h, mean of n = 3 independent experiments, read-out: HDQP1 IC50 (CellTiter Glo)
# [4] = 72h, one independent experiment per value, read-out: HDQP1 IC50, individual dose-response curve (CellTiter Glo)
# [5] = Homo sapiens, HDQ-P1, 72 h, one independent experiment per value, read-out: HDQP1 IC50, individual dose-response curve (CellTiter Glo)
# T1 sequence (P09619 33-1106): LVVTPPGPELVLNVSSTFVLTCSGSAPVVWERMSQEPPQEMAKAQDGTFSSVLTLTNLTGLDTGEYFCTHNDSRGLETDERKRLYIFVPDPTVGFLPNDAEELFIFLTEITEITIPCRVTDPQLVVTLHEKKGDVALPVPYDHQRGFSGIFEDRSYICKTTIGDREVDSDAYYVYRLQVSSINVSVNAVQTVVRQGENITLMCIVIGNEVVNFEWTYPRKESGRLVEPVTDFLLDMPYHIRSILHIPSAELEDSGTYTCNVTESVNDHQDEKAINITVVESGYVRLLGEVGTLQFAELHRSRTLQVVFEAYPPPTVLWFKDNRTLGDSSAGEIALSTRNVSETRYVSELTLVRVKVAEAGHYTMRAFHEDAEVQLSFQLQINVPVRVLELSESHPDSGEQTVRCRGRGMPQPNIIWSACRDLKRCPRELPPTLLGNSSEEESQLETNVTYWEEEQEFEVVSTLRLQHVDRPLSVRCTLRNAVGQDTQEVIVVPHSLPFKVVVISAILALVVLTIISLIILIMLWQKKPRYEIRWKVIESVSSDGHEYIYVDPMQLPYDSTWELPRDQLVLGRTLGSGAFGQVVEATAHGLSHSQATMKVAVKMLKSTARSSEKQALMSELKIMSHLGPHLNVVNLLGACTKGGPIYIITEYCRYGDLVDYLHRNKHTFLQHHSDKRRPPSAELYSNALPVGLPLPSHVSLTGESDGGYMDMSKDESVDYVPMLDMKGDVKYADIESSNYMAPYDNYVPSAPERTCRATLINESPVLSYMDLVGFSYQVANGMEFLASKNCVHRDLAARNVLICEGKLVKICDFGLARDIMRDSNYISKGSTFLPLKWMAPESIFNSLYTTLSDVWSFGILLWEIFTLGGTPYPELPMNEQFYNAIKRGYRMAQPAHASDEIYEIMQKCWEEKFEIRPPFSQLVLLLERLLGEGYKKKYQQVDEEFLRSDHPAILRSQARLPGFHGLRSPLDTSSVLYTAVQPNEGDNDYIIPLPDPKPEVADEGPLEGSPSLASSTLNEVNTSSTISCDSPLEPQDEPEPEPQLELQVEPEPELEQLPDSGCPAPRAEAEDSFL
# T4 sequence (P10721 26-976): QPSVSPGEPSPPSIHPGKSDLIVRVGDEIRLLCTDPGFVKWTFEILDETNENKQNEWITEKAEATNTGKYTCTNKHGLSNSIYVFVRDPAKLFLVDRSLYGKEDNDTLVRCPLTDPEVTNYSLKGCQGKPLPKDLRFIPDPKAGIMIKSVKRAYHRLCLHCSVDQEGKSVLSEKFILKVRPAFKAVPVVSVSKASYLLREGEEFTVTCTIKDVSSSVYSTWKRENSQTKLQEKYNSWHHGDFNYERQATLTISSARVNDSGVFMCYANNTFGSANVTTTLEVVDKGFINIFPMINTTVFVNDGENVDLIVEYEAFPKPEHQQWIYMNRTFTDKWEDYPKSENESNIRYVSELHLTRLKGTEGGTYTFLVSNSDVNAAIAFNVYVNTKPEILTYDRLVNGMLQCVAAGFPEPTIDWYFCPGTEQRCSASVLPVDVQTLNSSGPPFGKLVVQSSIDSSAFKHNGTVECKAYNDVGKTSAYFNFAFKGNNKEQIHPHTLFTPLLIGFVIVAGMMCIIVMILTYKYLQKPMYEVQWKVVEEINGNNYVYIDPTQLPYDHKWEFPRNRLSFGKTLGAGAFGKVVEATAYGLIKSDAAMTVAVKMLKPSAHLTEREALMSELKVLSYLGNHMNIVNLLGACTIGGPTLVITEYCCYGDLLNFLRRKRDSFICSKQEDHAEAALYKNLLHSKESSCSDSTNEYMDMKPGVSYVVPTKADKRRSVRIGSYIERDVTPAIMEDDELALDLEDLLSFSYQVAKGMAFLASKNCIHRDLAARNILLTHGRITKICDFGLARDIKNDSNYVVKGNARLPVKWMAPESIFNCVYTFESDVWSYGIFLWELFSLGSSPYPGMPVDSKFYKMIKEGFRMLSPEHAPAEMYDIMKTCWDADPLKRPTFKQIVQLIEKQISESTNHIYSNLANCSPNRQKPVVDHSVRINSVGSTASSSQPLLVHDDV
SMILES,per_control_1000nM PDGFRB (PDGFRB [1]) [percent control],per_control_10000nM PDGFRB (PDGFRB [1]) [percent control],per_control_1000nM FLT3 (FLT3) [percent control],per_control_10000nM FLT3 (FLT3) [percent control],"CTX normalized_to_DMSO (DU4475 cells; DU4475, exp 1, 0.3 µM)","CTX normalized_to_DMSO (DU4475 cells; DU4475, exp 1, 1 µM)","CTX normalized_to_DMSO (DU4475 cells; DU4475, exp 1, 3 µM)","CTX normalized_to_DMSO (DU4475 cells; DU4475, exp 1, 10 µM)","CTX normalized_to_DMSO (DU4475 cells; DU4475, exp 1, 30 µM)",per_control_1000nM TAF1(2) (TAF1(2)) [percent control],per_control_10000nM TAF1(2) (TAF1(2)) [percent control],IC50 (HDQP1 cells; [3]) [µM],IC50 (HDQP1 cells; [4]),"IC50 (HDQP1 cells; Homo sapiens, HDQ-P1, 72 h, mean of n = 3 independent experiments, read-out: HDQP1 IC50 (CellTiter Glo)) [µM]",IC50 (HDQP1 cells; [5]) [µM],IC50 (PDGFRB [2]) [µM],anti-proliferative activity in KASUMI-1 cells (KASUMI-1 cells),IC50 (c-KIT) [µM],"IC50 (HDQP1 cells; 72h, mean of n = 3 independent experiments, listed as 1248, read-out: HDQP1 IC50 (CellTiter Glo)) [µM]"
COc1ccc(-c2cc(NC(=O)c3ccc(C(C)(C)C)cc3)[nH]n2)cc1 [Compound 3i-1103],0,0,0,0,1.007,0.9954,0.9628,0.9392,0.7319,21,2.6,,,,,,,,
"Cc1cc(-c2cc(NC(=O)c3ccc(C(C)(C)C)cc3)[nH]n2)ccn1 [Compound 3i-1246, 4-(tert-butyl)-N-(3-(2-methylpyridin-4-yl)-1H-pyrazol-5-yl)benzamide]",0,0,0,0.2,,,,,,4.1,3.6,> 10,10.5 µM and 19.5 µM,13.4,10.1,,,,
"CC(C)(C)c1ccc(C(=O)Nc2cc(-c3ccccc3)n[nH]2)cc1 [Compound 3i-1247, 4-(tert-butyl)-N-(3-phenyl-1H-pyrazol-5-yl)benzamide]",0,0,12,0,,,,,,97,78,,> 30 µM,,,0.0034,superior anti-proliferative activity,0.0085,
"Cn1cc(-c2cc(NC(=O)c3ccc(C(C)(C)C)cc3)n[nH]2)ccc1=O [Compound 3i-1248, 4-(tert-butyl)-N-(5-(1-methyl-6-oxo-1,6-dihydropyridin-3-yl)-1H-pyrazol-3-yl)benzamide]",11,0.35,6.7,0.15,,,,,,0.3,0.05,> 10,21.1 µM and 22.1 µM,,18.8,,,,20.7
